Results taken from ChEMBL document CHEMBL1201862, “PubChem BioAssay data set” (2004).
Activity calls are given as the source filed them.

Assays:
[1] = M. tuberculosis H37Rv growth inhibitors, H37Rv strain (AID 1626); assay type: functional
[2] = biological target: Voltage-dependent T-type calcium channel subunit alpha-1H (Homo sapiens, UniProt O95180); assay type: functional;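 note: channel activity triggered by adding a high calcium stimulation buffer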
[3] = biological target: T1, Carboxy-terminal domain RNA polymerase II polypeptide A small phosphatase 1 (Homo sapiens, UniProt Q9GZU7); assay: CTDSP1 inhibitors, concentration-response, biochemical, absorbance readout, ultra-high-throughput screen actives (AID 540297); assay type: functional
T1 sequence (Q9GZU7 whole entry): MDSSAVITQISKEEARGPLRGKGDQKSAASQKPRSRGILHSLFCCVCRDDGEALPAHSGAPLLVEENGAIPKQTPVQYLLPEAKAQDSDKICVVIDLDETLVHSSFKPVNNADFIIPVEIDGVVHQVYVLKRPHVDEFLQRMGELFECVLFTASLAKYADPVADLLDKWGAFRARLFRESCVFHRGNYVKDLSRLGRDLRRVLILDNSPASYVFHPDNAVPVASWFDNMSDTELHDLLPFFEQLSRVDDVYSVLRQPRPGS

[4] = biological target: T2, Low molecular weight phosphotyrosine protein phosphatase (Homo sapiens, UniProt P24666); assay type: functional; details: read-out: IC50_Mean;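 note: Dose-response confirmation assay measuring inhibition of LMPTP enzyme activity by fluorescence intensity read-out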
T2 sequence (P24666 whole entry): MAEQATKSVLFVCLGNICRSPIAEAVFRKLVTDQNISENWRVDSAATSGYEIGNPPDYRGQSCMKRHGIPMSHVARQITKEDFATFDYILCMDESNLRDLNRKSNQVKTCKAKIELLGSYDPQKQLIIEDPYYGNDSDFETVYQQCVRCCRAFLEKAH

Streptococcus = assay: GAS UMAA2166 growth inhibition – luminescence, BacTiterGlo, counter-screen for streptokinase expression inhibitor project, dose response (AID 1915); assay type: functional, organism-based;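 note: potency for reduction of bacterial viability or growth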
Streptokinase A = biological target: T3, Streptokinase A (Streptococcus pyogenes serotype M1, UniProt P10520); assay: viability-normalized secreted streptokinase activity reduction – plasminogen activation absorbance, OD405, dose response (AID 1914); assay type: functional, Streptococcus pyogenes M1 GAS;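 note: secreted streptokinase activity via plasminogen activation per viability signal from cell pellet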
T3 sequence (P10520 whole entry): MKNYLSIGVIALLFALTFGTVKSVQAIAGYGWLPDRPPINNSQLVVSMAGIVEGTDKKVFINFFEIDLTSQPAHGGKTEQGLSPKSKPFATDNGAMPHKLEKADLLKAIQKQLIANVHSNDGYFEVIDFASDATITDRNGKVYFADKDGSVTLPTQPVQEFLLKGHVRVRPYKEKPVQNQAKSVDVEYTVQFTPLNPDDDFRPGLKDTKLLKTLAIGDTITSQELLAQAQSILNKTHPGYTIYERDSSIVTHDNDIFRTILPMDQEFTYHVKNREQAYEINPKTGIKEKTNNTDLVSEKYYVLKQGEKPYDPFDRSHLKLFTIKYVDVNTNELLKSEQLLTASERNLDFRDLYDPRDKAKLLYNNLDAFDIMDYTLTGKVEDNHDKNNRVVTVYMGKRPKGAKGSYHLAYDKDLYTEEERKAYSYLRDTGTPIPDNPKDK

[5] = tested on: Streptococcus sp. 'group A'; assay: Streptococcus pyogenes SK(-)GAS viability under kanamycin – luminescence, BacTiterGlo, confirmation, counter-screen for streptokinase expression inhibitor project, dose response (AID 1900); assay type: functional, organism-based
[6] = biological target: T4, Polyadenylate-binding protein 1 (Homo sapiens, UniProt P11940); assay: MLLE domain peptide-binding blockers, IC50 – biochemical, fluorescence polarization, FITC-PAM2 peptide, dose response (AID 602259); assay type: functional; details: read-out: IC50_Mean
T4 sequence (P11940 whole entry, the tested form may be a part): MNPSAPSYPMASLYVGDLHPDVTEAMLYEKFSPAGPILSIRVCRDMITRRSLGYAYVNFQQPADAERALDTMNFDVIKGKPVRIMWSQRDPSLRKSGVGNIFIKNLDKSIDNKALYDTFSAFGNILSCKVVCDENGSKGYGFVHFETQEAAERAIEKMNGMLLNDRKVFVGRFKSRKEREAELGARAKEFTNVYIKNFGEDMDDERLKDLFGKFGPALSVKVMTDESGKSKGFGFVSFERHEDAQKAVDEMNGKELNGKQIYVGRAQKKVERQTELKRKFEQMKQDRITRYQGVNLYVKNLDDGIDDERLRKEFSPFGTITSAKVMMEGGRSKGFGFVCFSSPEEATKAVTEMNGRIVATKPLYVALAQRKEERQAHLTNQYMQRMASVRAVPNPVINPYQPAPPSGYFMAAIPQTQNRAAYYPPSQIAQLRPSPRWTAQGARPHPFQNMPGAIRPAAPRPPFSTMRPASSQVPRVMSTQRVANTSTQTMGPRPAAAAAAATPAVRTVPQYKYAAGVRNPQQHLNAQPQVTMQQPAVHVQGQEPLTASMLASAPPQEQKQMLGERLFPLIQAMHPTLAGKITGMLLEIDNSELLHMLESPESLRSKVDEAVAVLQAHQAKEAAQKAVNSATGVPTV

[7] = biological target: T4, Polyadenylate-binding protein 1; assay: MLLE binding blockers, Cy5 peptide tracer – biochemical, fluorescence polarization, Cy5-PAM2 peptide, secondary, miRNA deadenylation inhibitor project, dose response (AID 602260); assay type: functional; details: read-out: IC50_Mean
[8] = HIV-1 AD8 envelope cell-cell fusion blockers – cherry-pick, dose response (AID 652062); assay type: functional, cell-based;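 note: luciferase signal from cell-cell fusion driven by HIV-1 clade B AD8 Env; potency is for inhibitors of fusion seen as a drop in luminescence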
INS1 = assay: INS-1E survival protection against cytokine death – cell-based, luminescence, retest, dose response (AID 449756); assay type: functional; details: Rattus norvegicus;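 note: cell death triggered by IL-1 beta plus TNF-alpha plus IFN-gamma mixture; protective hits raise ATP signal compared with cytokine alone wells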
[9] = Luminescence Cell-Based Dose Confirmation HTS to Identify Activators of 5'UTR Stem-Loop Driven Alpha-Synuclein mRNA Translation in H4 Neuroglioblastoma Cells. [Related pubchem assays: 1829 (Project Summary), 1814 (Primary HTS)]; assay type: functional
[10] = Luminescence Cell-Based Dose Response HTS to Identify Activators of Luciferase Translation or Activity in H4 […] Cells. [Related pubchem assays: 1829 (Project Summary), 1814 (Primary HTS)]; assay type: functional
H4 = assay: Luminescence Cell-Based Dose Response HTS to Identify Activators of 5'UTR Stem-Loop Driven Prion Protein mRNA Translation in H4 Neuroglioblastoma Cells. [Related pubchem assays: 1829 (Project Summary), 1814 (Primary HTS)]; assay type: functional; details: Homo sapiens
[11] = biological target: T5, High affinity choline transporter 1 (Homo sapiens, UniProt Q9GZV3); assay: human choline transporter blockers, potency – cell-based, 5-point CRC, membrane potential dye, dose response (AID 504840); assay type: functional
T5 sequence (Q9GZV3 whole entry): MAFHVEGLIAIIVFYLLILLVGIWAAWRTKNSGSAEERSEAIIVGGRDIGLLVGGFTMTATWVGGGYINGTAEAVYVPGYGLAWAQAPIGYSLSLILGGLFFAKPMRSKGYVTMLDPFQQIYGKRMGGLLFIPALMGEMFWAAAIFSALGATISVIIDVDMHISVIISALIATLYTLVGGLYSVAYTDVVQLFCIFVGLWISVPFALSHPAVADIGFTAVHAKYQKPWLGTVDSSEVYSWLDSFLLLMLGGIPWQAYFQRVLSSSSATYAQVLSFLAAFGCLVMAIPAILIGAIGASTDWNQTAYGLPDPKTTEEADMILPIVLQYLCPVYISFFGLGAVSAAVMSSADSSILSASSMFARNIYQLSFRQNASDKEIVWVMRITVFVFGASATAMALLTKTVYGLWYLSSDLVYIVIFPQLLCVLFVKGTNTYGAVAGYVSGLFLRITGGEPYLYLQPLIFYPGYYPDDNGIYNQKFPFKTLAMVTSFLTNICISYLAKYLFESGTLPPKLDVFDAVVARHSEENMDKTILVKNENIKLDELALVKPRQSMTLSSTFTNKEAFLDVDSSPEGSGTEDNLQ

[12] = biological target: Induced myeloid leukemia cell differentiation protein Mcl-1 (Homo sapiens, UniProt Q07820); assay type: functional
Induced myeloid leukemia cell differentiation protein Mcl-1, sequence (Q07820 whole entry): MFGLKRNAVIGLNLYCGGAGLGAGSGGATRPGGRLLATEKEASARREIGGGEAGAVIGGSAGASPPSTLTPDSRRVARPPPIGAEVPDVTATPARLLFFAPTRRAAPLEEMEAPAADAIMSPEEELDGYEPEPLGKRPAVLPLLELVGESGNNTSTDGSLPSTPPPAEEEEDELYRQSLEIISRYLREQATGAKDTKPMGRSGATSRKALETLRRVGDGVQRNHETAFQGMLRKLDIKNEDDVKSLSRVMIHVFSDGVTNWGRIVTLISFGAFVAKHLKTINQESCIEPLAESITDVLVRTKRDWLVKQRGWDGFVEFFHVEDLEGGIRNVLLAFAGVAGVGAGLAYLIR

H9c2 = assay: cells; assay type: functional, cell-based; details: Rattus norvegicus, H9c2, Myocardium;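 note: confirmatory concentration-response retest of ultra-high-throughput screening hits for modulation of myocardial damage; cell death induced by hydrogen peroxide oxidative stress; compound pretreatment for 60 min then peroxide exposure for 2 h; potency is for protecting the cells against peroxide damage rather than for killing them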
Fatty acid synthase [13] = biological target: T6, Fatty acid synthase (Homo sapiens, UniProt P49327); assay: inhibition of human FAS-TE enzyme activity – biochemical, kinetic fluorescence intensity, dose response (AID 624326); assay type: functional;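 note: rate of fluorescence rise from hydrolysis of a fluorogenic O-methyl fluorescein ester substrate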
[14] = biological target: T7, Short transient receptor potential channel 4 (Mus musculus, UniProt Q9QUQ5); assay: block of DAMGO-driven TRPC4 calcium entry – cell-based, HEK293 TRPC4/mu-opioid, Fluo-4 calcium, dose response (AID 434942); assay type: functional;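 note: potency of inhibitors blocking the TRPC4 calcium response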
T7 sequence (Q9QUQ5 whole entry): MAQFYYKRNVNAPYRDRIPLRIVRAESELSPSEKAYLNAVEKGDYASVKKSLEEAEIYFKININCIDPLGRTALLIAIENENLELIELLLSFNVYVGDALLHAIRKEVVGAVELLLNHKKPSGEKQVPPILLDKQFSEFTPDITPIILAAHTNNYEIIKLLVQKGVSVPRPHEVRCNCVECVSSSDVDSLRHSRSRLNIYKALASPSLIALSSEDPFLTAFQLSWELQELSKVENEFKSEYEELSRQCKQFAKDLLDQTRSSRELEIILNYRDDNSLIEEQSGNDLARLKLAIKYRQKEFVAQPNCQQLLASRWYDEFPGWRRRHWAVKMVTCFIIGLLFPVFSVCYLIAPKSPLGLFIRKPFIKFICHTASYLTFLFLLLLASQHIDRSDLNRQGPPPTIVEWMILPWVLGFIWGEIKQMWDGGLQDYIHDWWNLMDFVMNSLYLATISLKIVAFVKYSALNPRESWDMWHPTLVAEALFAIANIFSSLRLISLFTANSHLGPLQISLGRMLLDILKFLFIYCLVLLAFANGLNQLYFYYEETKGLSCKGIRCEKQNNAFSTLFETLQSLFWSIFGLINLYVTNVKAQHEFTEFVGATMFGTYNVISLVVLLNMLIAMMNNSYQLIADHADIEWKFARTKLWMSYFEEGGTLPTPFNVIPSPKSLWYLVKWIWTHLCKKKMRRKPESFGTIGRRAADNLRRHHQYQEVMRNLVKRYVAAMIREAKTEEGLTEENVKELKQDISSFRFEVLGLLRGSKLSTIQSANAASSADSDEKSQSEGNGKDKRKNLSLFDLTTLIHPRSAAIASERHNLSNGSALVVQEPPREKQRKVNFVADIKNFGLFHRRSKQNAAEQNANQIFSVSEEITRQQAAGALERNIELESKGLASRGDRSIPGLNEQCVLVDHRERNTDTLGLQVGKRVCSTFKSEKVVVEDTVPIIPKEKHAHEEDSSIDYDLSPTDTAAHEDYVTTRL

Fatty acid synthase [15] = biological target: T6, Fatty acid synthase; assay: inhibition of human FAS-TE enzyme activity – biochemical, endpoint fluorescence intensity, uHTS hits, dose response (AID 624327); assay type: functional;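 note: fluorescence from hydrolysis of an O-methyl fluorescein acyl ester substrate by the enzyme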
cells = assay type: functional
[16] = THP-1 cell cytotoxicity, dose response, cytotoxicity control for non-replicating M. tuberculosis project (AID 489025); assay type: functional
[17] = Vero E6 cell cytotoxicity, dose response, cytotoxicity control for non-replicating M. tuberculosis project, secondary assay (AID 492998); assay type: functional, VeroE6; details: Vero C1008

Voltage-dependent T-type calcium channel subunit alpha-1H, sequence (O95180 whole entry, the tested form may be a part): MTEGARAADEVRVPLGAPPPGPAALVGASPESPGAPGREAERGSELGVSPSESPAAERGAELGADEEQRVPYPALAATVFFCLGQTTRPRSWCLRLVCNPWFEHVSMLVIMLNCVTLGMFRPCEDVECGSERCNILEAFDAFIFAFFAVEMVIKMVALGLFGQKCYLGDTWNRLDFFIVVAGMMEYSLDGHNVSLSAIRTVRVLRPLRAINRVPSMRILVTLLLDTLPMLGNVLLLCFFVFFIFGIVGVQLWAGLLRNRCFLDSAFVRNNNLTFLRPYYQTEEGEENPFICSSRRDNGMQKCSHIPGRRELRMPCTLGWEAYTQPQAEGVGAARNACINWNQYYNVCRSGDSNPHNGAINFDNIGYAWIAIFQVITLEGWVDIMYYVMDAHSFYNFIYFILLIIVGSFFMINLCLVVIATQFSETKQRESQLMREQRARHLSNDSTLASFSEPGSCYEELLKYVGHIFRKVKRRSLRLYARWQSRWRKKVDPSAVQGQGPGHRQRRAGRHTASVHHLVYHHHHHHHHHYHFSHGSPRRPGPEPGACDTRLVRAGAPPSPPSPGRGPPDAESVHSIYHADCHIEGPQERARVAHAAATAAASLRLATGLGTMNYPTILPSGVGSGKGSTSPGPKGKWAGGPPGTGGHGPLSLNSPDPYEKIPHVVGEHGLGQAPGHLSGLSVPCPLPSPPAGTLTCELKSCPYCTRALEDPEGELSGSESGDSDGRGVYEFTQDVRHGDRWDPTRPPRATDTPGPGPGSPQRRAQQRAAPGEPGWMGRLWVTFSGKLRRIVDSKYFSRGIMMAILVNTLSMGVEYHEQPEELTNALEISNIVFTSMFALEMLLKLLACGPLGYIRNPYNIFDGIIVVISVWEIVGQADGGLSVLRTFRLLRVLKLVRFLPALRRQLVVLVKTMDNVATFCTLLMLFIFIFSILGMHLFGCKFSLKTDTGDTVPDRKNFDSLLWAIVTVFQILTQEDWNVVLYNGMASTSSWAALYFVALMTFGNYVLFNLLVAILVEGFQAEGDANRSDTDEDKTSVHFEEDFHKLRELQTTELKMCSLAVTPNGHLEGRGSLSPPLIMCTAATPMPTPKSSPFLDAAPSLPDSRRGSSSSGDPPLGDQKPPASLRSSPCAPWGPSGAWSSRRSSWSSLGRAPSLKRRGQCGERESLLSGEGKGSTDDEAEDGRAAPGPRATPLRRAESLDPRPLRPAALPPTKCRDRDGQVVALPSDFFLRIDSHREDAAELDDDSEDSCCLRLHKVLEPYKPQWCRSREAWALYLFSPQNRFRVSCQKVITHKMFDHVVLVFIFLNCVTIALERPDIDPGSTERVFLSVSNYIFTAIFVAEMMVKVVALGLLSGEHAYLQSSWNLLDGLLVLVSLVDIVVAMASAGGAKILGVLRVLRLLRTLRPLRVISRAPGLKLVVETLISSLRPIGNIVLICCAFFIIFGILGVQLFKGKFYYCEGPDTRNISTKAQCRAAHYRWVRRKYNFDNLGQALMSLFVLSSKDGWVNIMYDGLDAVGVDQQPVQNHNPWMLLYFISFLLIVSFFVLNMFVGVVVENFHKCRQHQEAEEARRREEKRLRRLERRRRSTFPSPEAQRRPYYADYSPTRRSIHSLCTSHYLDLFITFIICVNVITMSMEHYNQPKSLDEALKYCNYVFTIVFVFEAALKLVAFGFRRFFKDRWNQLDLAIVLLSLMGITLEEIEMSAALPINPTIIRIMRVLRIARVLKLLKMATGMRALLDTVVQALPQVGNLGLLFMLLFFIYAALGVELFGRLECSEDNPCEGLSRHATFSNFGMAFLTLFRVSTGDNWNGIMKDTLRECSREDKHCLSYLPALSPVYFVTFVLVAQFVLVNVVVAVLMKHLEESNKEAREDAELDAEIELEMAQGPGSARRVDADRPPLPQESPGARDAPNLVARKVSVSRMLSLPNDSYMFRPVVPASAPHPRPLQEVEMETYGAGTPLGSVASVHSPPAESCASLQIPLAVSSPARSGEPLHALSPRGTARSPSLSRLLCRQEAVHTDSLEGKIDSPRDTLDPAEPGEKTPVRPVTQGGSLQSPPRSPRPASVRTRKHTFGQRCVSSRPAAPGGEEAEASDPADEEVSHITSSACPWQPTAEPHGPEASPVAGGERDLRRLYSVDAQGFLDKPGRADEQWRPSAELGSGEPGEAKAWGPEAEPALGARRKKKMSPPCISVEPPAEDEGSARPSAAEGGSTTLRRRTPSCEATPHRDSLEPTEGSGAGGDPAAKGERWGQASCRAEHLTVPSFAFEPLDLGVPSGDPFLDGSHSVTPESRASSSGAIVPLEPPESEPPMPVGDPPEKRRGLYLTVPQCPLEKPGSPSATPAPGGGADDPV

Compound: COc1ccc(/N=C/c2c(O)oc3ccccc3c2=O)cc1
- IC50 [1]: > 100 µM (active)

Compound: CCC(C)(C)n1nnnc1C(c1ccc(C)cc1)N1CCN(Cc2ccc3c(c2)OCO3)CC1 (configuration not stated)
- EC50 [2]: 6.68 µM (active)

Compound: Cc1cccc(NC(=O)COc2ccc(/C=C\c3nc(O)nc(O)c3[N+](=O)[O-])cc2)c1
- IC50 [3]: 1.78 µM (active)
- IC50 [4]: 80 µM (inactive)

Compound: Cn1cc(C(=O)c2ccc(Cl)cc2Cl)cc1C(=O)NN=C(N)COc1cccc(C(F)(F)F)c1
- EC50 [2]: 2.61 µM (active)
- EC50 (Streptococcus): > 150 µM (not active)
- EC50 (Streptokinase A): 133 µM (active)
- EC50 [5]: 2.31 µM (active)

Compound: CCCNC(=O)NCCc1c(C)[nH]c2ccccc12
- IC50 [6]: 45.9 µM (inactive)
- IC50 [7]: > 66 µM (inactive)

Compound: CC(C)OCCCNc1[nH]cnc2c3ccccc3nc1-2
- AC50 [8]: 5.7 µM (active)
- AC50 (INS1): 2.87 µM (active)

Compound: Cn1cnnc1SCc1ccc(-c2ccc(Br)cc2)o1
- EC50 [9]: 20.7 µM (active)
- EC50 [10]: 21.2 µM (active)
- IC50 [1]: > 100 µM (active)
- EC50 (H4): 22.2 µM (active)

Compound: Cc1cccc(-c2noc(CN(C(=O)c3ccc4c(c3)OCO4)C(C)C)n2)c1
- EC50 [2]: 8.31 µM (active)

Compound: C=CCOc1ccc(/C=N/O)cc1Cl
- IC50 [1]: > 100 µM (active)

Compound: Cc1[nH]c2ccccc2c1C(=O)CN1CCCC(C)C1 (configuration not stated)
- IC50 [11]: 15.8 µM (active)

Compound: CCCn1c2ccccc2c2cnn(CC(=O)NCCCN3CCCCC3CC)c(=O)c21 (configuration not stated)
- IC50 [11]: 13.6 µM (active)

Compound: COc1cccc(N2CCN(C(=O)C3CCCN(c4ncnc5c4nc4n5CCCCC4)C3)CC2)c1 (configuration not stated)
- IC50 [11]: 16.6 µM (active)

Compound: COc1ccc(N=C2C(=O)Nc3c(C)cccc32)cc1
- IC50 [1]: > 100 µM (active)

Compound: O=C(N=Nc1c(O)[nH]c2ccc(F)cc12)c1ccc(NS(=O)(=O)c2cccs2)cc1
- IC50 [4]: 80 µM (inactive)

Compound: COc1cccc(C2C3=C(O)CC(C)(C)CC3=NC(C)=C2C(=O)Nc2nc3ccccc3s2)c1OC (configuration not stated)
- IC50 [1]: > 100 µM (active)

Compound: O=C(O)CSc1cc(C(=O)c2cc(F)ccc2O)cn2c(=O)c3c(-c4ccccc4)csc3nc12
- IC50 [12]: 2.79 µM (active)
- IC50 [11]: 16.6 µM (active)

Compound: N=c1n(CCN2CCCC2)c2ccccc2n1CC(O)c1ccco1 (configuration not stated)
- IC50 [6]: > 66 µM (inactive)
- IC50 [7]: > 66 µM (inactive)

Compound: COc1cccc(/C=N/NC(=O)c2ccncc2)c1OC(=O)c1ccc(Br)cc1
- IC50 (H9c2): 12.8 µM (active)
- IC50 [6]: 25.1 µM (inactive)
- IC50 [7]: > 66 µM (inactive)

Compound: O=C(CCN1CCOCC1)NNC(=S)NC(=O)c1ccccc1
- IC50 [6]: > 66 µM (inactive)
- IC50 [7]: > 66 µM (inactive)

Compound: O=C1/C(=C/c2ccccc2Cl)SC(=S)N1CCCC(=O)N(CCO)c1ccccc1
- IC50 (Fatty acid synthase [13]): 9.91 µM (active)
- EC50 [14]: 0.473 µM (active)
- IC50 (Fatty acid synthase [15]): 14.2 µM (active)

Compound: Cc1csc2nc(NC(=O)c3ccccc3)sc(=O)c12
- IC50 [3]: 7.03 µM (active)
- AC50 (INS1): > 260 µM (inactive)
- IC50 [4]: 29.8 µM (inactive)

Compound: CCn1c(NC(=O)c2ccccc2)nc2ccccc21
- IC50 (cells): 1.94 µM (active)
- CC50 [16]: > 40 µM (active)
- CC50 [17]: 19.6 µM (active)

Compound: COc1ccccc1C(CNC(=O)c1cccc(NS(=O)(=O)c2ccc(C)c(F)c2)c1)N1CCCC1 (configuration not stated)
- IC50 [11]: 12.5 µM (active)

Compound: CCN(Cc1ccccc1)C(c1ccccn1)c1nnnn1C1CCCCC1 (configuration not stated)
- EC50 [2]: 3.93 µM (active)

Compound: CCCc1nc2c(C)cc(Br)cn2c1Cc1ccsc1
- IC50 [6]: 41.9 µM (inactive)
- IC50 [7]: 35.7 µM (inactive)

Compound: O=C(OCc1nc2ccccc2s1)c1cccs1
- EC50 [2]: 12.2 µM (active)
